According to US11286258B2, “Nature-inspired anticancer and antibacterial motifs and pharmaceutical composition thereof” (University of Sharjah, priority 2020, dated 2022):
Values after ≈ are worked out from the molar mass of the structure shown.

How the values were obtained:
6 MRSA strains = assay: MIC, panel of 6 MRSA strains; format: cell-based; conditions: Staphylococcus aureus, across the panel of tested Gram-positive strains, read-out: MIC against all the 6 MRSA strains
Procedure: Antibacterial activity: The compounds were tested for the minimum inhibitory concentrations (MIC), which is the lowest concentration of a chemical required to inhibit visible microbial growth following overnight incubation. MIC values were determined using broth microdilution method according to the Clinical and Laboratory Standards Institute guidelines (CLSI, 2015, M07-A10). Mueller-Hinton broth was used as a culture medium in all the experiments. Exponentially growing bacterial cells were prepared in Mueller-Hinton broth at a concentration of approximately 5×10^5 CFU/mL. Two-fold serial dilutions of the test compound (8 concentrations ranged between 100-0.78 μg/mL) were tested. […] In each experiment, solvent (DMSO) was used as a negative control, un-treated control (composing of bacteria in Mueller-Hinton broth) was used as a growth control, blank (culture media alone) was used as sterility control. The 96-well microplate with the test compounds was incubated overnight at 37° C. Turbidity in wells indicated bacterial growth.
The compounds were tested on six MDR Gram-positive bacteria including three clinical isolates of methicillin-resistant Staphylococcus aureus (MRSA-1, MRSA-2 and MRSA-3) and three reference MRSA strains (ATCC33591, ATCC33592 and ATCC700699). They were also tested on three MDR Gram-negative bacteria including New Delhi metallo-beta-lactamase (NDM-1) positive, carbapenem-resistant E. coli (ATCC BAA2469), extended-spectrum beta-lactamase (ESBL) producing, colistin-resistant E. coli (CDC-AR-0346) and carbapenem-resistant Acinetobacter baumannii (ATCC BAA1605), in addition to two non-MDR bacteria from the same species, namely E. coli (ATCC 25922) Acinetobacter baumannii (ATCC 19606).

SKBR3 cells = assay: Western blot, autophagy- and iron metabolism-related proteins, SKBR3; format: cell-based, human
Procedure: Western Blotting (autophagy- and iron metabolism-related proteins): Cells were grown in DMEM supplemented with 10% FBS and 1×PEST (Penicillin and streptomycin antibiotics) at 37° C. in incubator having humidified atmosphere with 5% CO2. The media were removed and cells were washed twice with 1× cold PBS. Cells lysis was performed with RIPA lysis buffer containing (150 mM sodium chloride, 1.0% NP-40, 0.1% SDS, 50 mM Tris pH 8.0, 0.5% sodium deoxycholate supplemented with protease inhibitors cocktail). Cells were kept on icebox during the lysis process. Cold lysis buffer was added to each well directly and then cells were scraped and collected in 1.5 ml Eppendorf tube. Cell lysis was kept on icebox for 20 minutes and then centrifuged at 4° C. for 10 minutes. The supernatant was collected and the pellet was discarded. After, protein quantification, samples were boiled in 5× loading buffer at 95° C. for 5 minutes. After completion of the gel running and transfer process, the membrane was stained with ponceau solution. After that, the membrane was washed with 1×TBST and then blocked in 5% non-fat dry milk for 1 hr at room temperature. The membrane was washed 3 times with 1×TBST and then incubated with indicated primary antibodies at 4° C. overnight. Primary antibodies were removed; the membrane was washed 3 times with 1×TBST and then incubated with secondary antibodies for 2 h at room temperature. Secondary antibodies were diluted in 5% non-fat dry milk in 1× TB ST. After removal of the secondary antibody, the membrane was washed 3 times with 1×TBST. The membrane was incubated in ECL solution and the signal was developed using Gel Doc system from Biorad.

SKBR3 and SKOV3 = assay: Crystal violet and DAPI staining; format: cell-based, human; conditions: compared to compounds 1d and 1k; 48 h
Procedure: Colony formation assay: Human Normal epithelial cells, SKBR3, and SKOV3 cells were treated with 1d, 1e and 1k compounds with indicated concentrations for 48 h. Then cells were fixed with colony fixation solution (Acetic acid/Methanol (1:7) vol/vol) at room temperature. 15 minutes later fixation solution was removed and cells were washed again carefully with 1×PBS. Cells were stained with 0.5% crystal violet at room temperature for 20 minutes. Crystal violet was removed and cells were washed carefully 3 times with distilled water to remove excess dye. Colony growth was visualized by crystal violet staining. DAPI staining: SKBR3 and SKOV3 cells were treated with indicated compounds. After 48 h of treatment, the media were removed from cell lines and cells were washed with 1× cold PBS. Cells were fixed with (Acetic acid/Methanol (1:7) vol/vol)) solution for 15 minutes at RT and then washed with 1× cold PBS. Permeabilization was performed with 0.1% Triton X-100 for 5 minutes and then cells were washed with 1× cold PBS. Cells were stain with DAPI solution for 15 minutes at RT and then cells were washed 3 times with 1× cold PBS. Images were taken using a fluorescence microscope.

| MIC (6 MRSA strains) [µg/mL] | SMILES | Expression of BECLIN-1 (SKBR3 cells) | Expression of Ferritin (FTH1) (SKBR3 cells) | Expression of LC3B1/II (SKBR3 cells) | Expression of pH2AX (SKBR3 cells) | Nuclear damage in cancer cell lines (DAPI staining) (SKBR3 and SKOV3) |
| --- | --- | --- | --- | --- | --- | --- |
| 1.56 (≈ 3.36 µM) | Cc1ccc2c(c1)c1c3n2[C@@]2(C=C/C(=N\Nc4ccc(C(F)(F)F)cc4)CC2)CC[C@@H]3NCC1 [Compound 1h] |  |  |  |  |  |
|  | FC(F)(F)c1ccc(N/N=C2\C=C[C@@]3(CC2)CC[C@@H]2NCCc4c2n3c2ccccc42)cc1 (racemic) [Compound 1e] | induced | induced | induced | induced | greater levels of nuclear damage |
